Test results taken from patent US20230012172A1, “COMPOSITIONS AND METHODS FOR TREATMENT OF PLATINUM-BASED CHEMOTHERAPEUTIC RESISTANT TUMORS” (The George Washington University, priority 2020, published 2023).

What was measured:
IGROV1 CR cells = assay: IGROV1 CR xenograft in nude mice; format: in vivo; conditions: IGROV1 CR xenograft tumors
Description: To further evaluate the therapeutic potential of UA in combination with cisplatin in vivo, IGROV1 CR cells were subcutaneously implanted into nude mice to form platinum drug resistant ovarian tumors. The mice with these tumors were then treated with UA, cisplatin, or combination of both via intraperitoneal injection.
Animal experiments. Xenograft experiments were performed in 6-week female BALB/c athymic nude mice (Jackson Laboratory) by subcutaneously injecting 5×10^6 IGROV1 CR cells within 50% Matrigel gelatinous protein mixture (Corning). Mice were randomized to receive treatment after reached a minimum tumor volume of 150 mm^3. 4 groups of mice (5 mice per group) were treated intraperitoneally with vehicle, cisplatin (8 mg/kg/2day), UA (10 mg/kg/2 days) and combination of UA and cisplatin (10 mg/kg/2 day of UA +8 mg/kg/2 day of cisplatin) for 2 weeks. A minimum of 6 tumors per group were assessed. The tumor volume was calculated according to the formula: length×(width^2)/2.
Immunohistochemistry. Immunohistochemical (IHC) staining and scoring were performed similar to that previously described n Zhou et al., (2018) Oncogene 37, 3981-3997, the disclosure of which is incorporated herein in its entirety. The quantification of immunohistochemical staining was scored blindly at least by two independent observers.

SENP1 [1] = biological target: T1, SENP1 (Homo sapiens, UniProt Q9P0U3); assay: Cellular thermal shift assay; conditions: IGROV1 cells, higher temperature
T1 sequence (Q9P0U3 1-644): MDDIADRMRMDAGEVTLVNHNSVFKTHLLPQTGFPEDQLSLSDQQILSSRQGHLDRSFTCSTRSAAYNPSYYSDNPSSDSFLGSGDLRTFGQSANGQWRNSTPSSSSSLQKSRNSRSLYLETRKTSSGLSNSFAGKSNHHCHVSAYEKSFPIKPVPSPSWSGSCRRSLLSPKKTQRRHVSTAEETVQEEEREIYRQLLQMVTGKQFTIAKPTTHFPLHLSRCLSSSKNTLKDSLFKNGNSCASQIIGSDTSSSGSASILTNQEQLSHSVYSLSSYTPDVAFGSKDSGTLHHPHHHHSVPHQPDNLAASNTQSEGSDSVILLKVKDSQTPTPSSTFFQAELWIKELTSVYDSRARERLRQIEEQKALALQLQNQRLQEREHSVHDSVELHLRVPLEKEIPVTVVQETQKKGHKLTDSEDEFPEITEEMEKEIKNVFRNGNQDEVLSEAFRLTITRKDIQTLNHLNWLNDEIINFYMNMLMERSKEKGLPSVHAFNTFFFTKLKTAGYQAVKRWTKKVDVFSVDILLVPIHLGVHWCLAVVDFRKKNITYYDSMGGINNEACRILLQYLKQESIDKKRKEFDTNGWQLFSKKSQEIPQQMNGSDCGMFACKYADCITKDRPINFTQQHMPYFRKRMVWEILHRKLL
Description: To determine whether UA binds to SENP1 directly, cellular thermal shift assays were performed in which a small molecule binds to a protein resulting in thermal stabilization of the protein.

SENP1 [2] = biological target: T1, SENP1; assay: Cell free thermal shift assay with recombinant SENP1; format: binding; design: GST (N); made in house; host or cells: E. coli implied (pGEX-4T1 vector; BL21 (DE3) is stated only for pET28a-JAK2)

For `C[C@H]1[C@H](C)CC[C@]2(C(=O)O)CC[C@]3(C)C(=CC[C@@H]4[C@@]5(C)CC[C@H](O)C(C)(C)[C@@H]5CC[C@]43C)[C@H]12` [UA, ursolic acid], the “expression of pSTAT3 in tumor samples (IHC)” value (IGROV1 CR cells) was “suppressed”, the “SENP1 protein thermal stabilization versus DMSO” value (SENP1 [1]) was “stabilized” and the “thermal stabilization of recombinant SENP1 proteins” value (SENP1 [2]) was “stabilized”.
